Here are results for seven compounds from PubChem BioAssay (NCI).

Common to all, as to assay: NCI-60 cell line screen, 48 h
Test [1] deals with CCRF-CEM leukemia.
The test system of test [2] is EKVX NSCLC.
The test system of test [3] is HCT-116 colon.
The subject of test [4] is HCT-15 colon.
For test [5], the system named is KM12 colon.
For test [6], the system named is MCF7 breast.
For test [7], the system named is SK-MEL-2 melanoma.
The subject of test [8] is SK-MEL-28 melanoma.
The test system of test [9] is SN12C renal.
The test system of test [10] is U251 CNS.

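48-hour exposure; five concentrations; linearly interpolated endpoints. GI50 marks 50% less growth. The concentration for full growth arrest is given as TGI.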

With `COc1ccc(-c2cc(-c3cccc(NS(C)(=O)=O)c3)nc(N)c2C#N)cc1`, the GI50 in [1] is 87.5 nM; in test [2] it was 525 nM; in test [3], 49.6 nM; in [4], 108 nM; in test [5], 118 nM; in [6], 348 nM. In addition, the GI50 in test [7] is 119 nM; in test [8] it was 180 nM; in test [9], 298 nM; in [10] it was 57.7 nM. In addition, the TGI was over 100000 nM in test [1]; over 81600 nM in test [2]; 8730 nM in [3]; 19400 nM in test [4]; 9120 nM in test [5]; 25300 nM in test [6]. Moreover, the TGI in test [7] turned out to be 14600 nM; in [8], 47200 nM; in test [9], 25100 nM; in test [10] it was 19300 nM.
`CC1(C)CC([P+](c2ccccc2)(c2ccccc2)c2ccccc2)=NN1`: the GI50 in [1] is 8360 nM; in [2], 2420 nM; in test [3] it was 3040 nM; in test [4], over 100000 nM; in test [5], 1890 nM; in test [6], 2460 nM. The GI50 is 5090 nM in test [7], 8670 nM in test [8], 4390 nM in test [9] and 2000 nM in test [10]. Also, the TGI was over 100000 nM in test [1]; over 100000 nM in test [2]; over 100000 nM in [3]; over 100000 nM in test [4]; 45900 nM in [5]; over 100000 nM in test [6]. The TGI in [7], in test [8], in test [9] and in test [10] was over 100000 nM each time.
For the compound `O=C1c2ccccc2-c2c1c1ccc([N+](=O)[O-])cc1c(=O)n2CCCNCCO`, the GI50 in test [1] is 23 nM; in test [3], 61.2 nM; in test [4], 276 nM; in test [5] it was 297 nM; in test [7], 1690 nM; in test [8], 1270 nM. The GI50 in test [9] was 287 nM; in test [10], 77.8 nM. For the same compound, the TGI in test [1] was 1090 nM; in test [2], over 21000 nM; in test [3], 441 nM; in test [4], 1690 nM; in [5] it was 1760 nM; in [6], 1310 nM. Moreover, the TGI in [7] was 3820 nM; in test [8] it was 2620 nM; in test [9] it was 2070 nM; in test [10], 1430 nM.
Turning to `Clc1ccc(CNc2nccc(-c3cnn4ncccc34)n2)cc1`, the GI50 in [1] is 9690 nM; in test [2] it was 5540 nM; in [3] it was 7920 nM; in test [4], 8500 nM; in test [5], 5550 nM; in [6], 5910 nM. For the same compound, the GI50 was 5250 nM in test [7], 5640 nM in test [8], 7540 nM in [9] and 6730 nM in test [10]. In addition, the TGI in [1] was over 25000 nM; in [2], over 19900 nM; in [3], over 25000 nM; in [4] it was over 25000 nM; in [5] it was 15500 nM; in [6] it was over 25000 nM. For the same compound, the TGI was 11500 nM in test [7], 17500 nM in [8], over 25000 nM in [9] and over 25000 nM in test [10].
With `NS(=O)(=O)c1ccc(-n2ncc3c(Nc4ccccc4)ncnc32)cc1`, the GI50 in test [1] is 17700 nM; in test [2], 41400 nM; in test [3], 27400 nM; in test [4], 19100 nM; in test [5], 9630 nM; in [6] it was 49200 nM. The GI50 in test [7] is 44300 nM; in test [8] it was 31600 nM; in [9], over 100000 nM; in test [10], 26900 nM. The TGI in test [1] was 92500 nM; in test [2] it was over 100000 nM; in test [3] it was over 100000 nM; in test [4] it was over 100000 nM; in [5] it was 46700 nM; in test [6], over 100000 nM. In addition, the TGI in [7], in [8], in test [9] and in test [10] was over 100000 nM each time.
For the compound `COc1cccc(CCC(=O)c2cc3c(N)c(C(=O)Nc4cccc(Cl)c4C)sc3nc2C)c1`, the GI50 in [1] is 437 nM; in [2], 998 nM; in test [3], 448 nM; in test [4] it was 433 nM; in test [5], 502 nM; in test [6] it was 336 nM. The GI50 was 1360 nM in test [7], 981 nM in test [8], 667 nM in [9] and 445 nM in test [10]. Further, the TGI in test [1], in test [2], in test [3], in test [4], in test [5] and in [6] was over 100000 nM each time. Moreover, the TGI in test [7], in [8], in test [9] and in test [10] was over 100000 nM each time.
As to `Cc1ncc(C(=O)Nc2ccc(CN3CCN(C)CC3)c(C(F)(F)F)c2)cc1C#Cc1c(N)ncc2ccccc12`, the GI50 in test [1] was 494 nM; in test [2] it was 458 nM; in test [3], 159 nM; in [4] it was 382 nM; in [5], 4.44 nM; in test [6], 378 nM. Besides, the GI50 is 545 nM in test [7], 411 nM in [8], 319 nM in test [9] and 539 nM in [10]. Also, the TGI in [1] is 1350 nM; in [2] it was 906 nM; in test [3], 620 nM; in [4], 873 nM; in test [5] it was 479 nM; in test [6], 913 nM. For the same compound, the TGI was found to be 1250 nM in test [7], 889 nM in [8], 783 nM in test [9] and 1070 nM in test [10].
